Measured values as given in ChEMBL document CHEMBL1144982, “Ganglioside GM1 mimics: lipophilic substituents improve affinity for cholera toxin” (Bioorg Med Chem Lett, 2003).

Assay: Dissociation constant by non-linear regression analysis
Type: physicochemical

Row | Compound | Kd [µM]
1 | CC(=O)N[C@@H]1[C@H](O[C@H]2C[C@H](C(=O)OC(C)(C)C)[C@@H](C(=O)OC(C)(C)C)C[C@H]2O[C@H](CC2CCCCC2)C(=O)O)O[C@@H](CO)[C@H](O)[C@@H]1O[C@@H]1O[C@@H](CO)[C@H](O)[C@H](O)[C@@H]1O | 45
2 | CC(=O)N[C@@H]1[C@H](O[C@H]2C[C@H](C(=O)OC(C)(C)C)[C@@H](C(=O)OC(C)(C)C)C[C@H]2O[C@H](Cc2ccccc2)C(=O)O)O[C@@H](CO)[C@H](O)[C@@H]1O[C@@H]1O[C@@H](CO)[C@H](O)[C@H](O)[C@@H]1O | 10
3 | CC(=O)N[C@@H]1[C@H](O[C@H]2C[C@H](C(=O)OC(C)(C)C)[C@@H](C(=O)OC(C)(C)C)C[C@H]2O[C@H](C)C(=O)O)O[C@@H](CO)[C@H](O)[C@@H]1O[C@@H]1O[C@@H](CO)[C@H](O)[C@H](O)[C@@H]1O | 190
